Data as given in ChEMBL document CHEMBL1143583, “Anchor-GRIND: filling the gap between standard 3D QSAR and the GRid-INdependent descriptors” (J Med Chem, 2005).

The compounds below were run against Acetylcholinesterase (Homo sapiens, UniProt P22303) (assay: Inhibitory concentration against Acetylcholinesterase; (range = 2-20 uM)). Conditions: not given.
Chain of Acetylcholinesterase (P22303 whole entry): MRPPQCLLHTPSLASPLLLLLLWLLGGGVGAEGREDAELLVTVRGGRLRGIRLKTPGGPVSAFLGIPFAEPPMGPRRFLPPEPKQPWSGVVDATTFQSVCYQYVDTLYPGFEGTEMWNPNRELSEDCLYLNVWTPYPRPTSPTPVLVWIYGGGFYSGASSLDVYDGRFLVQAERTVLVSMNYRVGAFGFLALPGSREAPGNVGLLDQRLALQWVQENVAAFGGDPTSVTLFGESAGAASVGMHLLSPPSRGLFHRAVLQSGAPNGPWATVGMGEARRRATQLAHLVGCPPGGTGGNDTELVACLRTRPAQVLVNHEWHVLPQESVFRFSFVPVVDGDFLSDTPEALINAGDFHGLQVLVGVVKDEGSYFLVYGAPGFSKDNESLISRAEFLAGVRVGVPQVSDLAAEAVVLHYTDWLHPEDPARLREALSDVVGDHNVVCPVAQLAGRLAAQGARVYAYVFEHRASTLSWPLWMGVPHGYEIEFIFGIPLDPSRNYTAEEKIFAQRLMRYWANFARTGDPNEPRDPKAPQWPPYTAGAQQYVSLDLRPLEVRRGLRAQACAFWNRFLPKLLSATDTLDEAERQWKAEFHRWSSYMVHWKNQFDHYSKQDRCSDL

`CCN(CC)CCCN1CC(=O)N(C2CC2)CC1=O` and `CCN(CC)CCN1CC(=O)N(CCc2ccccc2)CC1=O` are the same in IC50: 20 µM for the first, 20 µM for the second.

`O=C1CN(CCN2CCOCC2)C(=O)CN1CCC(c1ccccc1)c1ccccc1` and `CC1CCCCN1CCCN1CC(=O)N(CCc2ccc(F)cc2)CC1=O` (stereo not given) are the same in IC50: 20 µM for the first, 20 µM for the second.

`CC(C)N(CCN1CC(=O)N(CCc2ccc(Cl)cc2Cl)CC1=O)C(C)C` and `COc1ccc(CCN2CC(=O)N(CCc3ccccn3)CC2=O)cc1OC` are the same in IC50: 20 µM for the first, 20 µM for the second.

`O=C1CN(CCN2CCCC2)C(=O)CN1CCCn1ccnc1` gave an IC50 of 20 µM.

The compounds below were run against Genome polyprotein (Hepatitis C virus genotype 1a (isolate 1) (HCV), UniProt P26664) (assay: Inhibitory concentration against hepatitis C virus NS3 protease (IC50 spans 2.5 log units)). Conditions: read-out: Log 1/IC50 (converted).
Design: species or system Hepacivirus hominis

Chain of Genome polyprotein (P26664 1027-1657 limits assumed): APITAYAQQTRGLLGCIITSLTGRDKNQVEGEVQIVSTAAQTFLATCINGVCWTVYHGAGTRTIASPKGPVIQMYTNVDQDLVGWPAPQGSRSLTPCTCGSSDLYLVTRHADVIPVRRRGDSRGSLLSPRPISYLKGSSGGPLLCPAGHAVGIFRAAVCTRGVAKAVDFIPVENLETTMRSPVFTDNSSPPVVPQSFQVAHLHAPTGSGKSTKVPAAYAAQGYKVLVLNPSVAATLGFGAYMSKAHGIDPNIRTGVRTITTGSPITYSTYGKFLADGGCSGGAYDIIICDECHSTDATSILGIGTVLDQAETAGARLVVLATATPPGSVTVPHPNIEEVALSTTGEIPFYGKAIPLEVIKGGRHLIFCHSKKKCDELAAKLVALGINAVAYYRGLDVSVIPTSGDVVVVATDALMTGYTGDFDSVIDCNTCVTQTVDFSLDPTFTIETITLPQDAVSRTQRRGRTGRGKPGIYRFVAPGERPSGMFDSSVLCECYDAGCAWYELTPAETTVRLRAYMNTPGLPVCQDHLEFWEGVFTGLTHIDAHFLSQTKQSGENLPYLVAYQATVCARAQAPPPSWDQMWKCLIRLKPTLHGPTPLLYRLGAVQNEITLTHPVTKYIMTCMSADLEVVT

First: CC(=O)N[C@H](C(=O)N[C@H](C(=O)C1C[C@H](Oc2cccc(N3CCOCC3)c2)C[C@H]1C(=O)CC1(C(=O)O)CC1)C(C)C)C1CCCCC1 (stereo not given in full)
Second: CC(=O)N[C@H](C(=O)N[C@H](C(=O)C1C[C@H](Oc2cccc(Br)c2)C[C@H]1C(=O)CC1(C(=O)O)CC1)C(C)C)C1CCCCC1 (stereo not given in full)
The IC50 of the first is 1.6-fold lower: 31.6 µM for the first, 50.1 µM for the second.

`CC(=O)N[C@H](C(=O)N[C@H](C(=O)C1C[C@H](Sc2nc3ccccc3s2)C[C@H]1C(=O)CC1(C(=O)O)CC1)C(C)C)C1CCCCC1` (stereo not given in full) and `CC(=O)N[C@H](C(=O)N[C@H](C(=O)C1C[C@H](Oc2nc3ccccc3s2)C[C@H]1C(=O)CC1(C(=O)O)CC1)C(C)C)C1CCCCC1` (stereo not given in full) are the same in IC50: 20 µM for the first, 20 µM for the second.

`CC(=O)N[C@H](C(=O)N[C@H](C(=O)C1C[C@H](Oc2ccncc2)C[C@H]1C(=O)CC1(C(=O)O)CC1)C(C)C)C1CCCCC1` (stereo not given in full) and `CC(=O)N[C@H](C(=O)N[C@H](C(=O)C1C[C@H](Oc2cccnc2)C[C@H]1C(=O)CC1(C(=O)O)CC1)C(C)C)C1CCCCC1` (stereo not given in full) are within 1.5-fold of each other in IC50: 158 µM for the first, 200 µM for the second.

First: CC(=O)N[C@H](C(=O)N[C@H](C(=O)C1C[C@H](O)C[C@H]1C(=O)CC1(C(=O)O)CC1)C(C)C)C1CCCCC1 (stereo not given in full)
Second: CC(=O)N[C@H](C(=O)N[C@H](C(=O)C1C[C@H](Oc2ccccc2)C[C@H]1C(=O)CC1(C(=O)O)CC1)C(C)C)C1CCCCC1 (stereo not given in full)
The IC50 of the first is higher: over 1000 µM for the first, 79.4 µM for the second.

First: CC(=O)N[C@H](C(=O)N[C@H](C(=O)C1C[C@H](Oc2ccc(Br)cc2)C[C@H]1C(=O)CC1(C(=O)O)CC1)C(C)C)C1CCCCC1 (stereo not given in full)
Second: CC(=O)N[C@H](C(=O)N[C@H](C(=O)C1C[C@H](Oc2ccc(Cl)cc2)C[C@H]1C(=O)CC1(C(=O)O)CC1)C(C)C)C1CCCCC1 (stereo not given in full)
The IC50 of the first is 2-fold lower: 25.1 µM for the first, 50.1 µM for the second.

First: CC(=O)N[C@H](C(=O)N[C@H](C(=O)C1C[C@H](Oc2ccc(Cl)c3cccnc23)C[C@H]1C(=O)CC1(C(=O)O)CC1)C(C)C)C1CCCCC1 (stereo not given in full)
Second: CC(=O)N[C@H](C(=O)N[C@H](C(=O)C1C[C@H](Oc2cccc3cccnc23)C[C@H]1C(=O)CC1(C(=O)O)CC1)C(C)C)C1CCCCC1 (stereo not given in full)
The IC50 of the first is 2.5-fold lower: 100 µM for the first, 251 µM for the second.

`COc1ccc(-c2ccc(O[C@H]3CC(C(=O)[C@@H](NC(=O)[C@@H](NC(C)=O)C4CCCCC4)C(C)C)[C@H](C(=O)CC4(C(=O)O)CC4)C3)cc2)cc1` (stereo not given in full) and `CC(=O)N[C@H](C(=O)N[C@H](C(=O)C1C[C@H](Oc2ccc(-c3ccccc3)cc2)C[C@H]1C(=O)CC1(C(=O)O)CC1)C(C)C)C1CCCCC1` (stereo not given in full) are the same in IC50: 31.6 µM for the first, 31.6 µM for the second.

Compared with `CC(=O)N[C@H](C(=O)N[C@H](C(=O)C1C[C@H](Oc2ccnc3cc(Cl)ccc23)C[C@H]1C(=O)CC1(C(=O)O)CC1)C(C)C)C1CCCCC1` (stereo not given in full), `COc1ccc2c(O[C@H]3CC(C(=O)[C@@H](NC(=O)[C@@H](NC(C)=O)C4CCCCC4)C(C)C)[C@H](C(=O)CC4(C(=O)O)CC4)C3)ccnc2c1` (stereo not given in full) is 2.5-fold lower in IC50: 2 µM for the first, 0.794 µM for the second.

Going from `CC(=O)N[C@H](C(=O)N[C@H](C(=O)C1C[C@H](Oc2nccc3ccccc23)C[C@H]1C(=O)CC1(C(=O)O)CC1)C(C)C)C1CCCCC1` (stereo not given in full) to `CC(=O)N[C@H](C(=O)N[C@H](C(=O)C1C[C@H](Oc2ccnc3ccccc23)C[C@H]1C(=O)CC1(C(=O)O)CC1)C(C)C)C1CCCCC1` (stereo not given in full), the IC50 falls from 7.94 µM to 5.01 µM (1.6-fold).

First: CC(=O)N[C@H](C(=O)N[C@H](C(=O)C1C[C@H](Oc2cccnc2-c2ccsc2)C[C@H]1C(=O)CC1(C(=O)O)CC1)C(C)C)C1CCCCC1 (stereo not given in full)
Second: CC(=O)N[C@H](C(=O)N[C@H](C(=O)C1C[C@H](Oc2cncc3ccccc23)C[C@H]1C(=O)CC1(C(=O)O)CC1)C(C)C)C1CCCCC1 (stereo not given in full)
The IC50 of the first is higher: over 200 µM for the first, 3.98 µM for the second.

`CC(=O)Nc1cccc(-c2cccc(O[C@H]3CC(C(=O)[C@@H](NC(=O)[C@@H](NC(C)=O)C4CCCCC4)C(C)C)[C@H](C(=O)CC4(C(=O)O)CC4)C3)c2)c1` (stereo not given in full) and `CC(=O)N[C@H](C(=O)N[C@H](C(=O)C1C[C@H](Oc2cccc(-c3cccc([N+](=O)[O-])c3)c2)C[C@H]1C(=O)CC1(C(=O)O)CC1)C(C)C)C1CCCCC1` (stereo not given in full) are the same in IC50: 6.31 µM for the first, 6.31 µM for the second.

`COc1ccc(-c2ccccc2O[C@H]2CC(C(=O)[C@@H](NC(=O)[C@@H](NC(C)=O)C3CCCCC3)C(C)C)[C@H](C(=O)CC3(C(=O)O)CC3)C2)cc1` (stereo not given in full) and `CC(=O)N[C@H](C(=O)N[C@H](C(=O)C1C[C@H](Oc2ccccc2-c2ccc(C(=O)O)cc2)C[C@H]1C(=O)CC1(C(=O)O)CC1)C(C)C)C1CCCCC1` (stereo not given in full) cannot be ordered by IC50: over 200 µM for the first, over 200 µM for the second.

Compared with `CC(=O)N[C@H](C(=O)N[C@H](C(=O)C1C[C@H](Oc2cccc(-c3ccccc3)c2)C[C@H]1C(=O)CC1(C(=O)O)CC1)C(C)C)C1CCCCC1` (stereo not given in full), `CC(=O)N[C@H](C(=O)N[C@H](C(=O)C1C[C@H](Oc2ccccc2-c2ccccc2)C[C@H]1C(=O)CC1(C(=O)O)CC1)C(C)C)C1CCCCC1` (stereo not given in full) is higher in IC50: 6.31 µM for the first, over 200 µM for the second.

First: COc1ccc2nccc(O[C@H]3CC(C(=O)[C@@H](NC(=O)[C@@H](NC(C)=O)C4CCCCC4)C(C)C)[C@H](C(=O)CC4(C(=O)O)CC4)C3)c2c1 (stereo not given in full)
Second: CC(=O)N[C@H](C(=O)N[C@H](C(=O)C1C[C@H](Oc2ccnc3cc(C(F)(F)F)ccc23)C[C@H]1C(=O)CC1(C(=O)O)CC1)C(C)C)C1CCCCC1 (stereo not given in full)
The IC50 of the first is 2.5-fold higher: 15.8 µM for the first, 6.31 µM for the second.

Compared with `CC(=O)N[C@H](C(=O)N[C@H](C(=O)C1C[C@H](Oc2ccc(I)cc2)C[C@H]1C(=O)CC1(C(=O)O)CC1)C(C)C)C1CCCCC1` (stereo not given in full), `CC(=O)N[C@H](C(=O)N[C@H](C(=O)C1C[C@H](Oc2ccc(F)cc2)C[C@H]1C(=O)CC1(C(=O)O)CC1)C(C)C)C1CCCCC1` (stereo not given in full) is 10-fold higher in IC50: 10 µM for the first, 100 µM for the second.

Compared with `CC(=O)N[C@H](C(=O)N[C@H](C(=O)C1C[C@H](Oc2ccccc2Br)C[C@H]1C(=O)CC1(C(=O)O)CC1)C(C)C)C1CCCCC1` (stereo not given in full), `CC(=O)N[C@H](C(=O)N[C@H](C(=O)C1C[C@H](Sc2ccc(Br)cc2)C[C@H]1C(=O)CC1(C(=O)O)CC1)C(C)C)C1CCCCC1` (stereo not given in full) is 1.6-fold higher in IC50: 25.1 µM for the first, 39.8 µM for the second.

`CC(=O)N[C@H](C(=O)N[C@H](C(=O)C1C[C@H](Sc2ccnc3cc(C(F)(F)F)ccc23)C[C@H]1C(=O)CC1(C(=O)O)CC1)C(C)C)C1CCCCC1` (stereo not given in full) showed an IC50 of 10 µM.
